Data on two molecules can be found in article PMC9635468, “Biological evaluation, docking studies, and in silico ADME prediction of some pyrimidine and pyridine derivatives as potential EGFR^WT and EGFR^T790M inhibitors” (Journal of Enzyme Inhibition and Medicinal Chemistry, 2022).

Molecules are shown by their SMILES. Converted amounts (≈) assume the structure as drawn.

One assay concerns H460. Nature of the assay: Cytotoxicity screening, SRB assay, H460. The conditions noted are these: for H460 IC50: 48 h; for IC50: Homo sapiens, NCI-H460, 48 h. Type of assay: cell-based, human. On the procedure: (§1) In this study, a panel of cell lines was examined for their chemosensitivity. Different concentrations of the synthesised pyridines and pyrimidine derivatives were used in this study (5, 12.5, 25, and 50 µg/mL) for all the examined cell lines. In this study, breast tumour cell line (MCF7), hepatocellular carcinoma cell line (HEPG2), larynx cell line (HEP2), lung cancer cell line (H460), colon cancer cell line (HCT116 and Caco2), hypopharyngeal cell line (FADU), and normal Vero cell line were applied. The full methodology is described in the Supplementary data (SI 1).
(§2) SI 1: Cytotoxicity screening against human cancer cell lines
(§3) In this study, a panel of cell lines was examined for their chemosensitivity. Different concentrations of the synthesized pyridines and pyrimidines derivatives were used in this study (5, 12.5, 25, and 50 µg/ml) for all the examined cell lines. The most sensitive cell line to the treatment regimen was selected and subjected to further investigations to explore the mechanism of this interaction. Human breast tumor cell line (MCF7), human hepatocellular carcinoma cell line (HEPG2), human larynx cell line (HEP2), human lung cancer cell line (H460), human colon cancer cell line (HCT116 and Caco2), human hypopharyngeal cell line (FaDu), and normal cell line Vero were used in this study. It was obtained from the American Type Culture Collection (ATCC, Minnesota, USA). The tumor cell line was maintained at National Cancer Institute (NCI), Cairo, Egypt.
(§4) The antitumor activities of pyridines and pyrimidines derivatives and all tested cell lines were evaluated by sulphorhodamine-B (SRB) assay 1. Briefly, cells were seeded at a density of 3 × 10^3 cells/well in 96-well microtiter plates. They were left to attach for 24 h before incubation with drugs. Next, cells were treated with different concentrations of 5, 12.5, 25, and 50 µg/ml for MCF7, HEPG2, HEP2, HCT116, Caco2, H460, FaDu, and Vero cells. For each concentration, three wells were used and incubation was continued for 48 h. DMSO was used as a control vehicle (1 % v/v). At the end of incubation, cells were fixed with 20 % trichloroacetic acid and stained with 0.4 % SRB dye. The optical density (O.D.) of each well was measured spectrophotometrically at 570 nm using an ELISA microplate reader (TECAN sunrise™, Germany). The mean survival fraction at each drug concentration was calculated as follows: […]
(§5) O.D. of the treated cells/O.D. of the control cells. The IC50 (concentration that produces 50% of cell growth inhibition) value of each drug was calculated using sigmoidal dose-response curve-fitting models (Graph Pad Prizm software, version 5) 1.

Another assay relates to MCF7. Description: Cytotoxicity screening, SRB assay, MCF7. It is filed as cell-based, human. The settings on record: for MCF7 IC50: 48 h; for IC50: Homo sapiens, MCF7, 48 h. Here is the method:
as §1, §2, §3, §4, §5
(In general: In SRB staining, fixed cells bind dye roughly in proportion to their protein.)

In another assay the test system is HEPG2. Description: Cytotoxicity screening, SRB assay, HEPG2. It is filed as cell-based, human. The conditions noted are these: for HEPG2 IC50: 48 h; for IC50: Homo sapiens, HepG2, 48 h. On the procedure:
as §1, §2, §3, §4, §5

Another assay relates to FADU. Nature of the assay: Cytotoxicity screening, SRB assay, FADU. It is filed as cell-based, human. The settings on record: 48 h; for IC50: Homo sapiens, FaDu. Here is the method: as §1, §2, §3, §4, §5
The target in the next assay is EGFR (Wild) (Homo sapiens, UniProt P00533). Nature of the assay: EGFR kinase (wild) inhibition assay, Kinase-Glo MAX.
Another assay concerns HCT116. Nature of the assay: Cytotoxicity screening, SRB assay, HCT116. It is filed as cell-based, human. The conditions noted are these: for HCT116 IC50: 48 h; for IC50: Homo sapiens, HCT-116, 48 h. Here is the method:
as §1, §2, §3, §4, §5

In the next assay the test system is T47D. Nature of the assay: Cytotoxicity screening, SRB assay, T47D. Type of assay: cell-based, human. The settings on record: Homo sapiens, T47D, 48 h.
Assay [1] has as its system MCF7, H460, FADU, HEP2, HEPG2, HCT 116, Caco2, and Vero cells. Nature of the assay: Oxidative stress assessment (MDA, NO, SOD, GSH). Type of assay: cell-based. The conditions noted are these: dose IC50, 48 h. On the procedure: Consequently, both compounds 8 and 14 were tested for their antioxidant activity in MCF7, H460, FADU, HEP2, HEPG2, HCT 116, Caco2, and Vero cells, and the dose used was the IC50 in all cell lines.
SI 2: Oxidative stress assessment
SI 2A: Determination of malondialdehyde content (MDA)
Lipid peroxidation products were quantified by measuring MDA level in cell culture lysate of control and treated cells using Lipid Peroxidation (MDA) Assay Kit (Sigma Aldrich Chemical Co., St.
Louis, USA) following the manufacturer’s instructions. The MDA level was calculated relative to the corresponding protein content. The absorbance was determined at 532 nm using a spectrophotometer (Spectronic, Milton Roy Co., USA).
SI 2B: Determination of superoxide dismutase (SOD)
[…] in cell culture lysate of control and treated cells by SOD determination kit (Sigma Aldrich Chemical Co., St. Louis, USA) following the manufacturer’s instructions. SOD level was calculated relative to the corresponding protein content. The absorbance of the supernatant was determined at 450 nm using a spectrophotometer (Spectronic, Milton Roy Co., USA) 2. The experiment was carried out three independent times.
SI 2C: Determination of reduced glutathione (GSH) content
Reduced glutathione was determined by adopting Ellman’s method. MCF7 and LCC2 cells were harvested, the protein was precipitated with trichloroacetic acid, and Ellman’s reagent [5,5-dithiobis-(2-nitrobenzoic acid)] (Sigma Aldrich Chemical Co, St. Louis, USA) was added to the supernatant. The absorbance was read at 405 nm and total SH was calculated as µM of GSH/mg protein 3.
SI 2D: Determination of nitric oxide (NO) content
Nitric oxide was determined in the culture media of the control and treated cells a s described before
4. Briefly, 0.5 ml cold absolute ethanol was added to 250µl culture media then left for 48 h at 4 °C to attain complete protein precipitation followed by centrifugation at 13,000 rpm for 1 h using a cooling centrifuge.
100 μl of nitrate standard solution were serially diluted in duplicate in a 96 -well microplate. Then, 100 μl of vanadium chloride were added to each well rapidly followed by 50 μl sulfanilamide and 50µl n -(1-naphthyl) ethylenediamine in 2 N hydrochloric acid. The absorbance at 540 nm was measured spectrophotometrically using an ELISA microplate reader (TECAN SunriseTM, Germany) following an incubation period of 30 min. The level of total nitrite/nitrate was expressed as µM and determined using […]

Another assay has as its system HEP2. Nature of the assay: Cytotoxicity screening, SRB assay, HEP2. Type of assay: cell-based, human. The conditions noted are these: for HEP2 IC50: 48 h; for IC50: Homo sapiens, HEp-2, 48 h. Here is the method: as §1, §2, §3, §4, §5

Chain of EGFR (Wild) (P00533 25-1210): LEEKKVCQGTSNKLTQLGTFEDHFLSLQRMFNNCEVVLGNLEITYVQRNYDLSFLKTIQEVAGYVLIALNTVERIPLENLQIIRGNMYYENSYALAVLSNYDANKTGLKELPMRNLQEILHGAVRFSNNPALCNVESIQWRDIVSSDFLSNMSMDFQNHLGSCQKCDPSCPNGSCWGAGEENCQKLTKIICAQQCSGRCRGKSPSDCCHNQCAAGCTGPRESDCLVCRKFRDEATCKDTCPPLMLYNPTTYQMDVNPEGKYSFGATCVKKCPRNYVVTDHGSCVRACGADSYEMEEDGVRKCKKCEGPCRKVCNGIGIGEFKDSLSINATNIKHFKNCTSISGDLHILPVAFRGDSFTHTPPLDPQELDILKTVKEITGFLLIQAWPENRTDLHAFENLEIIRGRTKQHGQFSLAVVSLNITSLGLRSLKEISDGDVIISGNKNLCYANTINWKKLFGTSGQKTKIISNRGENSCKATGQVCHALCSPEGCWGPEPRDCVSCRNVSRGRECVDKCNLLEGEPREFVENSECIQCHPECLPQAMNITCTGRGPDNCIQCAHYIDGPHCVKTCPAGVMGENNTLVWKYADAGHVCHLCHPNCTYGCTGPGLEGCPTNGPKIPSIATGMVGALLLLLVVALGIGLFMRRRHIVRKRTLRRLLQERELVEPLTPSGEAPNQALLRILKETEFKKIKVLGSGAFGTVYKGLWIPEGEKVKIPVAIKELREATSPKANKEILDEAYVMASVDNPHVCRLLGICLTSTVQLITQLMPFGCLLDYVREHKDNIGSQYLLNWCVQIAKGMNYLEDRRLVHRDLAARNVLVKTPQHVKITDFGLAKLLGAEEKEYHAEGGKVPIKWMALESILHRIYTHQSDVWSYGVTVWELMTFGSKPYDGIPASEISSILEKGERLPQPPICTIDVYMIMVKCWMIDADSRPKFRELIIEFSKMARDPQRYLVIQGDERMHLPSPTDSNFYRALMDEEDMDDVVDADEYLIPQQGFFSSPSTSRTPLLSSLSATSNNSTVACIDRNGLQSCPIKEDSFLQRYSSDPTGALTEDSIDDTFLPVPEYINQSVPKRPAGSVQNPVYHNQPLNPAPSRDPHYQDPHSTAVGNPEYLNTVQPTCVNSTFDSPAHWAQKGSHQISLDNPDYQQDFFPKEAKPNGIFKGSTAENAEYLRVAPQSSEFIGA
Protocol for EGFR (Wild): The reagent, Kinase-Glo MAX, was used[50], and luminescence was detected by applying the microplate reader.
The assay protocol was carried out by adding 25 μL of the master mixture: (6 μL Kinase assay buffer + 1 μL ATP (500 μM) + 1 μL PTK substrate + 17 μL water) to each well. Thereafter, 5 μL of the inhibitor solution was added to each well labeled as “test inhibitor”. Meanwhile, for the “positive control" and “blank”, 5 μL of the same solution without inhibitor (inhibitor buffer) was added. To the wells designated as "blank", add 20 μL of Kinase assay buffer. The amount of EGFR required for the assay was calculated and the enzyme was diluted to 1 ng/μL with Kinase assay buffer. The reaction was initiated by adding 20 μL of diluted EGFR enzyme to the wells designated as “positive control” and "test inhibitor control". The wells were incubated at 30°C for 40 minutes, then 50 μL of Kinase-Glo Max reagent was added to each well. The plate was incubated at room temperature for 15 minutes and luminescence was measured using the microplate reader.

In general, IC50 refers to the concentration that gives 50% inhibition. As for `Oc1n[nH]c2nc(-c3ccco3)cc(-c3cccs3)c12` [Compound 8], the “H460 IC50” value in the assay with H460 came out at 11.70 µg/mL. In addition, the IC50 turned out to be 8.5 µg/mL (≈ 30 µM) with H460; 3.8 µg/mL (≈ 13.4 µM) with MCF7; 4 µg/mL (≈ 14.1 µM) in the assay on HEPG2; 3.8 µg/mL (≈ 13.4 µM) in the assay with FADU; 131 ± 8 nM at EGFR (Wild); 4 µg/mL (≈ 14.1 µM) in the assay with HCT116. Also, the IC50 amounted to 7.5 µg/mL (≈ 26.5 µM) with T47D and 4.4 µg/mL (≈ 15.5 µM) in the assay with HEP2. Further, in the assay on MCF7, the “MCF7 IC50” value was determined as 4.10 µg/mL. Further, the “HEPG2 IC50” value in the assay on HEPG2 turned out to be 3.80 µg/mL. Further, the “FADU IC50” value with FADU stood at 5.60 µg/mL. In the assay on HCT116, the “HCT116 IC50” value was determined as 7.20 µg/mL. The “effect on oxidative state (MDA, NO, SOD, GSH)” value in assay [1] (Caco2) is “antioxidant effect”; in assay [1] (all tested cell lines except Caco2), “pro-oxidant effect”. The “HEP2 IC50” value in the assay with HEP2 came to 7.90 µg/mL.

Consider `N#Cc1c(-c2cccs2)cc(-c2ccco2)[nH]c1=O` [Compound 14], for which the “H460 IC50” value with H460 is on record as 8.00 µg/mL. For the same molecule, the half-inhibitory concentration (IC50) was determined as 12.5 µg/mL (≈ 46.6 µM) in the assay with H460; 7 µg/mL (≈ 26.1 µM) with MCF7; 3.6 µg/mL (≈ 13.4 µM) in the assay with HEPG2; 5.7 µg/mL (≈ 21.2 µM) in the assay on FADU; 203 ± 12 nM at EGFR (Wild); 7.4 µg/mL (≈ 27.6 µM) in the assay with HCT116. The IC50 was determined as 4.7 µg/mL (≈ 17.5 µM) in the assay on T47D and 8 µg/mL (≈ 29.8 µM) in the assay with HEP2. The “MCF7 IC50” value in the assay on MCF7 was determined as 3.70 µg/mL. Also, the “HEPG2 IC50” value in the assay with HEPG2 is 3.80 µg/mL. Besides, in the assay on FADU, the “FADU IC50” value was determined as 3.90 µg/mL. Also, the “HCT116 IC50” value with HCT116 is listed as 3.90 µg/mL. In addition, the “effect on oxidative state (MDA, NO, SOD, GSH)” value in assay [1] (FADU and Caco2) was “anti-oxidant effect”; in assay [1] (MCF7, H460, HEP2, HEPG2, HCT, and Vero cells), “pro-oxidant effect”. In the assay on HEP2, the “HEP2 IC50” value stood at 4.70 µg/mL.
